Assays:
[1] = molecular target: T1, C-C chemokine receptor type 4 (Homo sapiens, UniProt P51679); format: cell membranes, Membrane; settings: chem-1; further: in other assays of this panel Not Active means under 50% inhibition at 10 µM
T1 sequence (P51679 whole entry): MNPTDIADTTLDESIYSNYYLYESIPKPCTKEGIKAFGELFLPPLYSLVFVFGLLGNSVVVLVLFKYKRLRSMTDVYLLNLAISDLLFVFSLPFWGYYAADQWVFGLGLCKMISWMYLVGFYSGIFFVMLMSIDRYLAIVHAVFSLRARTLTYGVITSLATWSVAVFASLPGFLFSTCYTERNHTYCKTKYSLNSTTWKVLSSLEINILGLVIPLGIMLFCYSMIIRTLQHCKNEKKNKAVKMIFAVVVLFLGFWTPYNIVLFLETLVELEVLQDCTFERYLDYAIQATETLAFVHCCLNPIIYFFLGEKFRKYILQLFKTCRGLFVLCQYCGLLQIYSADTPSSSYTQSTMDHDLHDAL

[2] = molecular target: T2, Cysteinyl leukotriene receptor 1 (Homo sapiens, UniProt Q9Y271); format: cell membranes, CHO-K1, Membrane; settings: cho-k1; further: in other assays of this panel Not Active means under 50% inhibition at 10 µM
T2 sequence (Q9Y271 whole entry): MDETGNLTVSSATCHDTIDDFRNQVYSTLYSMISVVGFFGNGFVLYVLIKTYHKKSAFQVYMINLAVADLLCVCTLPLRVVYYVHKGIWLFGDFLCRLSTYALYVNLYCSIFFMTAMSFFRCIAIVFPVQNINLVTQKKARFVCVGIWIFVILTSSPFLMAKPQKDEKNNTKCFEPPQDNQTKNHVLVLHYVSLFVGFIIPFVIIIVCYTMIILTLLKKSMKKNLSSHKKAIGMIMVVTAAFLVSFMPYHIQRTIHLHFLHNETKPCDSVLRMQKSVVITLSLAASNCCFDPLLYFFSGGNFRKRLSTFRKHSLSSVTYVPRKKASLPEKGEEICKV

[3] = molecular target: T3, Polyunsaturated fatty acid lipoxygenase ALOX15 (Oryctolagus cuniculus, UniProt P12530); assay: biochemical; format: tissue-based, Reticulocytes; settings: reticulocytes;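 further: inhibition of 15-lipoxygenase enzyme activity measured with linoleic acid as the substrate; in other assays of this panel Not Active means under 50% inhibition at 10 µM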
T3 sequence (P12530 whole entry): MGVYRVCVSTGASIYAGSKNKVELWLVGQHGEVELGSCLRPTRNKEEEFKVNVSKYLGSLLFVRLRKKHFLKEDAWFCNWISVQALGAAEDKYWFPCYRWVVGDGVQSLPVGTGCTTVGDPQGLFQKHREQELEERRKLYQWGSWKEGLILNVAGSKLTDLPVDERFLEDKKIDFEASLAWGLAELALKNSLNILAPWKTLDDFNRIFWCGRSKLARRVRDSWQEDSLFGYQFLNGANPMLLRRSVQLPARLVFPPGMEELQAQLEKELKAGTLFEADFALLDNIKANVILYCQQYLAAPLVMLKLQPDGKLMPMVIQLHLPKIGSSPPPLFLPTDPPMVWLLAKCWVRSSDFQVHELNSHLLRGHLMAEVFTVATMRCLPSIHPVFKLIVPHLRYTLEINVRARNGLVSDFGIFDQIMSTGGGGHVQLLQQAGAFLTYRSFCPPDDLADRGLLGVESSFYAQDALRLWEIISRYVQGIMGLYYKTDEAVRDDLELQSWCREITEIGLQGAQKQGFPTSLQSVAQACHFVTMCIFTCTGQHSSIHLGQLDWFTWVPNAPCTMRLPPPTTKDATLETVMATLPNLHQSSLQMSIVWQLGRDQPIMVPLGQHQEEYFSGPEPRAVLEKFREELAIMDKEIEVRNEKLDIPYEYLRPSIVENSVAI

[4] = molecular target: Melanocortin receptor 5 (Homo sapiens, UniProt P33032); format: cell membranes, HEK293, Membrane; settings: hek293; further: in other assays of this panel Not Active means under 50% inhibition at 10 µM
[5] = molecular target: T4, Nitric oxide synthase, inducible (Mus musculus, UniProt P29477); design: species or system Escherichia coli
T4 sequence (P29477 whole entry): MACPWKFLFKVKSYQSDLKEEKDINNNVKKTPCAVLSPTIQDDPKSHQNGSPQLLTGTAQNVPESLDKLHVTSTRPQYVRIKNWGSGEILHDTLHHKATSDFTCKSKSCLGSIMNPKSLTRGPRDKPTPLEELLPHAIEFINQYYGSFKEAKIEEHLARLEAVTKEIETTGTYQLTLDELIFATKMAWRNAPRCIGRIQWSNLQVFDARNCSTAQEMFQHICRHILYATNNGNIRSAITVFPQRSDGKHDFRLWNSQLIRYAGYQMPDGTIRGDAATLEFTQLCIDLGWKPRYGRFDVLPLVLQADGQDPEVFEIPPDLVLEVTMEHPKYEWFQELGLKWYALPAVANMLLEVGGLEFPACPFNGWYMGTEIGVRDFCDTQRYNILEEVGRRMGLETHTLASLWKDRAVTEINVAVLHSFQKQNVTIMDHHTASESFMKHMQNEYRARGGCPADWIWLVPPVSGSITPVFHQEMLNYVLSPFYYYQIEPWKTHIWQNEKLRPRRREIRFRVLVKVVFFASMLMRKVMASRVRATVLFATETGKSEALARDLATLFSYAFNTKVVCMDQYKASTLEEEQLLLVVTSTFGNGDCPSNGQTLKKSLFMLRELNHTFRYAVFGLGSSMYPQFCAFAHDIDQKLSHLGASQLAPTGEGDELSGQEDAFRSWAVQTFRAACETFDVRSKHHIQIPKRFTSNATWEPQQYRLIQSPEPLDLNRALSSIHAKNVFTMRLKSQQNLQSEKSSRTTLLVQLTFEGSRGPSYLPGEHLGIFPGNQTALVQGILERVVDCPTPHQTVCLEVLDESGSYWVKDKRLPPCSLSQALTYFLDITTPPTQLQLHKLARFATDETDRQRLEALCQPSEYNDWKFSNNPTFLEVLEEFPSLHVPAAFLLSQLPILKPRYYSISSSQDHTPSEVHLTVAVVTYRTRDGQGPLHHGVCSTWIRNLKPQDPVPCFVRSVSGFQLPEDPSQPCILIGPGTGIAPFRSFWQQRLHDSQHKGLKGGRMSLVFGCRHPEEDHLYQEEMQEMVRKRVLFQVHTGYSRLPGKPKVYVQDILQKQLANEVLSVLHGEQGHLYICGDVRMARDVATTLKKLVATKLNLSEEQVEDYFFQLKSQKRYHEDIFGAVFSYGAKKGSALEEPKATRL

[6] = molecular target: Mu-type opioid receptor (Homo sapiens, UniProt P35372); assay: DRUGMATRIX: Opiate mu (OP3, MOP) radioligand binding (ligand: [3H] Diprenorphine); format: cell membranes, CHO-K1, Membrane; settings: cho-k1; Not Active = under 50% inhibition at 10 µM
[7] = DRUGMATRIX: Phorbol Ester radioligand binding (ligand: [3H] PDBu); format: cell membranes, Mus musculus, ICR, Brain, Membrane; settings: Not Active = under 50% inhibition at 10 µM
[8] = molecular target: Protein phosphatase 3 catalytic subunit alpha (Homo sapiens, UniProt Q08209); design: species or system Escherichia coli
[9] = DRUGMATRIX: Purinergic P2X radioligand binding (ligand: [3H] alpha, beta-Methylene-ATP); format: cell membranes, Oryctolagus cuniculus, New Zealand albino, Urinary bladder, Membrane; settings: Not Active = under 50% inhibition at 10 µM

Chain of Mu-type opioid receptor (P35372 whole entry): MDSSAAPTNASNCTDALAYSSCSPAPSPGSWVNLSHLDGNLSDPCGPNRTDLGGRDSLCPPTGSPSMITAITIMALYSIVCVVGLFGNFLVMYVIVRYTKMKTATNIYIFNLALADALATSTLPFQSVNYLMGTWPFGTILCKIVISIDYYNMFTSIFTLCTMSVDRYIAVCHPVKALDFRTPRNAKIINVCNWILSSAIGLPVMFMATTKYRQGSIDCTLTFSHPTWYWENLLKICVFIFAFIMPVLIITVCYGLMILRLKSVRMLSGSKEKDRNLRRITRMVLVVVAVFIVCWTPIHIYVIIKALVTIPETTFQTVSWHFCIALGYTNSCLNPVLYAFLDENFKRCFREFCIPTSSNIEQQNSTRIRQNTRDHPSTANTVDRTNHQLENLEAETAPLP
Chain of Melanocortin receptor 5 (P33032 whole entry): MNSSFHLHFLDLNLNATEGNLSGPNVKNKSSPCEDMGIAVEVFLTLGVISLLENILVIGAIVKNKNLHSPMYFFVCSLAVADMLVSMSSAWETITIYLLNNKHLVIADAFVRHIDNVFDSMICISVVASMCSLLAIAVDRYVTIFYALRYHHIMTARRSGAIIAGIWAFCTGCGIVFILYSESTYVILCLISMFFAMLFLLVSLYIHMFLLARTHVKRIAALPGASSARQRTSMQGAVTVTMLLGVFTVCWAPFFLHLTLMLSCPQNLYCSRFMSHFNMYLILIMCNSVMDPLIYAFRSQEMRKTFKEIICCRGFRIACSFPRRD

Fc1ccc([C@@H]2CCNC[C@H]2COc2ccc3c(c2)OCO3)cc1 [PAROXETINE]
Not Active: IC50 [1] | IC50 [2] | IC50 [3] | IC50 [4] | IC50 [5] | IC50 [6] | IC50 [7] | Ki [7] | IC50 [8] | IC50 [9] | Ki [9]

CC(C)(S)[C@@H](N)C(=O)O [PENICILLAMINE]
Not Active: IC50 [1] | IC50 [2] | IC50 [3] | IC50 [4] | IC50 [5] | IC50 [6] | IC50 [7] | Ki [7] | IC50 [8] | IC50 [9] | Ki [9]

CC(=O)CCCCn1c(=O)c2c(ncn2C)n(C)c1=O [PENTOXIFYLLINE]
Not Active: IC50 [1] | IC50 [2] | IC50 [3] | IC50 [4] | IC50 [5] | IC50 [6] | IC50 [7] | Ki [7] | IC50 [8] | IC50 [9] | Ki [9]

O=C1NC(=O)C(c2ccccc2)(c2ccccc2)N1 [PHENYTOIN]
Not Active: IC50 [1] | IC50 [2] | IC50 [3] | IC50 [4] | IC50 [5] | IC50 [6] | IC50 [7] | Ki [7] | IC50 [8] | IC50 [9] | Ki [9]

CNC(=O)Oc1ccc2c(c1)[C@]1(C)CCN(C)[C@@H]1N2C [PHYSOSTIGMINE]
Not Active: IC50 [1] | IC50 [2] | IC50 [3] | IC50 [4] | IC50 [5] | IC50 [6] | IC50 [7] | Ki [7] | IC50 [8] | IC50 [9] | Ki [9]

CN1C(C(=O)Nc2ccccn2)=C(O)c2ccccc2S1(=O)=O [PIROXICAM]
Not Active: IC50 [1] | IC50 [2] | IC50 [3] | IC50 [4] | IC50 [5] | IC50 [6] | IC50 [7] | Ki [7] | IC50 [8] | IC50 [9] | Ki [9]

CCC1(c2ccccc2)C(=O)NCNC1=O [PRIMIDONE]
Not Active: IC50 [1] | IC50 [2] | IC50 [3] | IC50 [4] | IC50 [5] | IC50 [6] | IC50 [7] | Ki [7] | IC50 [8] | IC50 [9] | Ki [9]

Reference: ChEMBL document CHEMBL1909046, “DrugMatrix in vitro pharmacology data”
